# Experimental data published in US20220267753A1, “RATIONAL THERAPEUTIC TARGETING OF ONCOGENIC IMMUNE SIGNALING STATES IN MYELOID MALIGNANCIES VIA THE UBIQUITIN CONJUGATING ENZYME UBE2N” (CHILDREN'S HOSPITAL MEDICAL CENTER, priority 2019, published 2022).
# Legend:
# [1] = In vivo preclinical pharmacokinetic analysis; parameters: species or system C57BL/6 mice; conditions: for drug-like / pharmacokinetic properties in words: mice; for AUC(0-inf) / AUC(0-t) / Cmax / Tmax / half-life: mouse, blood, ip, C57BL/6 mice, 20 mg/kg i.p., mean; for half-life: read-out: T½ (converted)
# Procedure: PK studies of UC-764864 and UC-764865 were performed in C57BL/6 mice (18-22 g). 10 mg/kg and 20 mg/kg UC-764864 or UC-764865 was administered through intraperitoneal (i.p.) injection. After dosing, blood samples were collected at 15 min, 30 min, 1 h, 2 h, 4 h, 8 h, 12 h, and 24 h. Samples from three animals were collected at each time point. Approximately 500 μL of blood was collected via orbital vein from each mouse, processed, and analyzed by LC-MS. Standard curves were prepared in blood covering the concentration range of 50-3,0000 ng/mL. Using the data from the standard curves, calibration curves were generated for PK tests. For in vivo toxicity studies, 25 mg/kg UC-764864, UC-764865, 10 mg/kg NSC697923 or vehicle control (methocel 0.5% tween-20 0.2%,0.1% DMSO in water) were administered in B6.SJL-Ptprca Pepcb/BoyJ mice (n=3/group) through i.p. injection. For 2 weeks the mice received 4 doses of each compound. Routine body weight and blood counts were performed. At the end of the study, tissues were harvested, placed in 10% buffered formalin, stained with hematoxylin and eosin (H&E) and examined by a pathologist.
# Plasma stability = assay type: in vitro ADME; parameters: half-life: dose or concentration left out as unconfirmed; conditions: C57/Bl6 plasma, concentration 1 (mM), K2EDTA; for half-life: mouse, read-out: Plasma Stability T ½
# Aqueous solubility = assay type: physicochemical; conditions: aqueous medium (not further specified); read-out: Aqueous Solubility, highest soluble concentration
# UBE2N = molecular target: T1, UBE2N (Homo sapiens, UniProt P61088); assay: Cellular thermal shift assay (CETSA) in MOLM-13 cells; assay type: binding; parameters: quantification of Ts, for endogenous UBE2N; endogenous in cells; host or cells: MOLM-13; conditions: MOLM-13, 1 hour, heat challenge at Tagg(75); read-out: EC50 of stabilization of UBE2N (CETSA)
# T1 sequence (P61088 1-152): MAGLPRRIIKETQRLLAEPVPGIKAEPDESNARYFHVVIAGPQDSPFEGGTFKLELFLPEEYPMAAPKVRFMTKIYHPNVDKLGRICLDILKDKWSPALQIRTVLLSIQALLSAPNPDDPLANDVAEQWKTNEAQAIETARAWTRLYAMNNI
# Procedure: CETSA was performed with MOLM-13 cells cultured in RPMI medium supplemented with 10% FBS. For an initial determination of the melting profile of UBE2N, fresh cell lysate prepared in non-denaturing buffer was dispensed into 96-well PCR plate in the above medium (approx. 8000 cells/well/50 μl), then was subjected to temperature gradient (37-60° C.) for 20 min. Subsequently, centrifugation was performed at 14,000 rpm to sediment the unstable protein content. Supernatant was collected and SDS-PAGE gel was run, and immuno-detection was performed for UBE2N using corresponding primary antibody. Band intensity was quantified on LI-COR C-Digit Blot Scanner, and subsequently Tagg(50) and Tagg(75) values were calculated for UBE2N. In a subsequent run, fresh lysates of MOLM-13 cells were treated at various doses with 4-fold dilutions (10, 2.5, 0.62, 0.15, 0.04, 0.01 and 0.002 .tM) of compounds UC-764864 and UC-764865 together with DMSO control, for 1 hour. Samples were then subjected to heat challenge at Tagg(75) for 20 min, and unstable protein was removed by centrifugation step. Following an immuno-blotting step, bands of remaining stable UBE2N were quantified, normalized to loading control and plotted using GraphPad Prism software. EC50 values of engagement for both compounds with UBE2N were subsequently calculated.
# [2] = Microsomal stability (mouse liver microsomes); assay type: in vitro ADME, C57/Bl6; conditions: for Microsomal Stability % Remaning at T60 / CLint scaled / half-life: C57/Bl6, concentration 1 (mM), matrix 0.5 mg/ml; for CLint scaled: C57/Bl6, mouse; for CLint scaled / half-life: liver microsomes; for half-life: mouse, read-out: Microsomal Stability T ½
# MOLM-13 = assay: Cell proliferation MTS assay / cytotoxicity screen; assay type: cell-based, human; conditions: for cytotoxicity screen in MOLM-13 cells: 2nd screen at 2 μM, 24 hr MTS
# Procedure: AML cell lines (5×10^3 cells/well) were seeded in 96-well plates and grown for 24 to 96 h in serum (10%)-containing medium in the presence or absence of inhibitors at the indicated concentrations. Proliferation was analyzed by means of an MTS assay using the CellTiter 96 Aqueous One Solution Cell Proliferation Assay (Promega, Madison, Wis., USA), according to the manufacturer's instructions. Data are mean with standard deviation from three independent experiments in technical triplicates. For the screening of 160 compounds from the UC library, the cell metabolic activity was assessed at 24 hours of treatment of MOLM-13 cells. Top 15 candidates were re-screened at 2 μM, and the cell metabolic activity was determined at 24 hours of treatment. In certain experiments, cell viability was determined by staining the cells with trypan blue at a 1/2 dilution and counting total number of viable cells upon treatment with UC-764864 or DMSO control. The cells were counted daily for 4 days using an automated cell counter (Countess II FL from Life Technologies). The cell proliferation in primary AMLs in FIG. 9E was performed as follows: 50,000 cells were plated in duplicate in a 96 well plate in IMDM containing 20% heat inactivated FBS plus 10 ng/ml of each SCF, IL3, IL6, TPO, and FLT3. UC-764864 was added at the indicated concentrations and cells were incubated with drug for 3 days, at which point cell viability was measured by MTS according to manufacturer's instructions.
# [3] = tested on: THP1-Blue NF-κB reporter cells; assay: NF-κB activation assay; assay type: cell-based, human; conditions: for UBE2N-dependent activation of NF-κB, reporter screen: top 14 small molecules
# Procedure: THP1-Blue NF-κB reporter cells (Invivogen) were diluted to 100,000 cells/mL and stimulated with 1 μg/mL IL1β, 100 ng/ml Pam3CSK4 or 1 μ/m LPS. The cells were subsequently seeded into a 96 well plate at 20,000 cells per well (200 μl) and introduced to drugs in an increasing concentration. The plates were incubated at 37 C, 5% CO2 for 24 hours. The following day, QuantiBlue Reagent was warmed to 37 C in a water bath and 180 μl was added to each well of a separate, clean 96 well plate. The incubated cells were spun down, and the supernatant was taken for the assay. To perform the assay, 20 μl of supernatant from each well was pipetted into the respective 180 μl QuantiBlue Reagent well, in triplicate. The reaction was mixed and incubated for 1 to 4 hours, when a color gradient could be seen. The absorbance was read at 630 nm for a final readout.
metabolism in mouse liver microsomes [2],Compound,drug-like / pharmacokinetic properties in words [1],AUC(0-inf) [1],AUC(0-t) [1],Cmax [1],Tmax [1],half-life [1],Plasma Stability % Remaning at T60 (Plasma stability),half-life (Plasma stability),solubility (Aqueous solubility),EC50 (UBE2N),Microsomal Stability % Remaning at T60 [2],CLint scaled [2],half-life [2],cytotoxicity screen in MOLM-13 cells (MOLM-13),"IC50 (MOLM-13; Homo sapiens, MOLM-13, MTS, 24 hours)","UBE2N-mediated NF-κB activity downstream of IL1R, TLR2, TLR4 ([3]; increasing concentrations, concentration dependent, equal potency)","UBE2N-dependent activation of NF-κB, reporter screen [3]"
readily metabolized,"CCc1ccc(C(=O)C=CSc2nc3ccc(C)cc3[nH]2)cc1 [UC-764864, 1-(4-ethylphenyl)-3-[(6-methyl-1H-benzimidazol-2-yl)sulfanyl]prop-2-en-1-one]",poor pharmacokinetic (PK) properties,461 ng·h/mL,436 ng·h/mL,446 ng/mL,15 min,124 min,21.4%,31.8 min,1 µM,2.2 µM,0.02%,1090 mL/min/kg,4.99 min,cytotoxic effects,1.9 µM,inhibited UBE2N-mediated NF-κB activity,inhibition of UBE2N-dependent signaling
,"COc1ccc(C(=O)C=CSc2nc3ccc(C)cc3[nH]2)cc1 [UC-764865, 1-(4-methoxyphenyl)-3-[(6-methyl-1H-benzimidazol-2-yl)sulfanyl]prop-2-en-1-one]","modestly improved solubility, stability, and PK properties",413 ng·h/mL,346 ± 46.3 ng·h/mL,216 ng/mL,19.8 min,528 min,39.6%,53.6 min,5 µM,0.42 µM,0.2%,1100 mL/min/kg,4.97 min,cytotoxic effects,,,inhibition of UBE2N-dependent signaling
